Measured values: patent US20070225213A1, “Nucleic acid carriers for delivery of therapeutic agents” (priority 2006, published 2007)

Columns and labels:
[1] = Column chromatography determination of drug loading limit of NAC-drug; type: physicochemical; conditions: Drug only (MTN, no carrier)
Excerpt: In a dosage form suitable for parenteral administration, the nucleic acid can be combined with the drug in an aqueous formulation of saline, dextrose or other suitable aqueous vehicle suitable for administration. It is preferred that the drug and the nucleic acid are combined in water or other suitable medium, prior to dilution in saline or media, in order to prevent inhibition of drug binding to the nucleic acid. The dosage form can be sterilized by a variety of means, and can optionally take the form of a concentrate that can be diluted in saline or other suitable vehicle prior to injection. It is preferred to minimize the amount of free drug in the injectable solution, such that the mass ratio of nucleic acid to drug is sufficient to bind most of the drug, and to limit free drug in the bloodstream. […] The percentage loading possible for other nucleic acid binding drugs will vary depending on their binding characteristics, and can be determined by column chromatography, spectrophotometry, and cytotoxicity assay methods as described herein. […]
Determination of drug loading limit of mitoxantrone (MTN) in a nucleic acid carrier (NAC) using a 2.5×9 cm G25 column (EX031904) and herring sperm DNA (HSDNA approx. range 10-100 bp Sigma-Aldrich). […] Collected 5 ml and checked absorbance scan of 0.2 ml sample on Synergy HT1. […] Collected 7.5 ml and read absorbance scan of 0.2 ml sample. […]

[2] = test system: BHK21; assay: Toxicity of NAC-MTN vs CD-MTN and MTN, MTT (Example 9, EX042105); type: cell-based, hamster
Method: FIG. 4. […] The relative toxicity of NAC-MTN was compared with MTN and CD-MTN in four cell lines, MCF7(breast cancer), COS7green monkey kidney (SV40 transformed), 3T3 (mouse fibroblast), and BHK21(hamster kidney). Cells were treated with identical amounts of MTN formulated as either NAC-MTN, MTN only, or poly-beta-cyclodextrin-sulfylbutylether(CD-MTN). After an incubation period, cell viability was assayed with MTT assay. The differences in toxicity between NAC-MTN and MTN or NAC-MTN and CD-MTN are shown as % difference. Greater percentage difference correlates to more reduction in relative NAC-MTN toxicity.
MCF7, COS7, 3T3, and BHK21 cells were plated out in duplicate rows of equivalent cell density in 100ul final volume. Initial cell densities were 2000 cells/well.
Preparing NAC-MTN, CD-MTN, and MTN only. Combined 180 ul of 0.05 mg/ml MTN with […] 0.1 mg/ml herring sperm genomic DNA (HSGDNA, Promega), 1500 ul of 2× DMEM media containing 20% FBS to give 3.0 ml final volume and 12% final drug loading in the dsDNA. For MTN only, 180 ul of MTN was combined with 1320 ul H2O and 1500 ul 2× DMEM. […]
Aspirated media in plate and replaced with 50 ul of 0.5 mg/ml MTT in 1× media, incubated 3 hours, aspirated, air dried 5 min and dissolved in 100 ul of isopropyl, read OD at A570. […]

For `O=C1c2c(O)ccc(O)c2C(=O)c2c(NCCNCCO)ccc(NCCNCCO)c21` [MTN, mitoxantrone], the “G25 Column Results” value [1] was “Single band, slow”, the “% tox. relative to media only” value ([2]; 2 uM final MTN, MTT 48 hours after adding samples) was 51.76% and the “toxicity (est.)” value ([2]; after 20-24 hour incubation with MTN, 2 uM) was ~50%.
